Results on two compounds are retold here after patent US5508295A, “Use of amino acyl amino propargyl diol compounds for treatment of glaucoma” (G. D. Searle & Co., priority 1994, dated 1996).

Broadly, the IC50 is the concentration needed to halve the response being measured. A high value points to a need for much substance.

Non-standard residues stand in square brackets, D forms with d. Residues, ends and D or L forms follow the SMILES beside them. *: point of attachment. Sta = CC(C)C[C@H](N)[C@@H](O)CC(=O)O; Isovaleryl = CC(C)CC(=O)*

The target of one experiment is T1, human renin (Homo sapiens, UniProt P00797).
T1 construct: purchased National Institute for Biological Standards, London
T1 sequence (P00797 67-406): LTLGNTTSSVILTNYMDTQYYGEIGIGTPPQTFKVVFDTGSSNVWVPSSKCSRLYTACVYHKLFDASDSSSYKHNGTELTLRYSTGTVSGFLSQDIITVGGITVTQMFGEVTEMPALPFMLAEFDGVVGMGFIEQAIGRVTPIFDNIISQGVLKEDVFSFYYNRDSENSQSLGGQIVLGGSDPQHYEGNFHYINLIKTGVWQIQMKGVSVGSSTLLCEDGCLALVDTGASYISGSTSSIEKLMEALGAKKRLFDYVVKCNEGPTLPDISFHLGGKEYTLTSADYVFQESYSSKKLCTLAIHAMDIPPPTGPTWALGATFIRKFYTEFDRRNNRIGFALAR
The experiment is described as follows: Human Renin Inhibition in vitro (angiotensin I by radioimmunoassay). It is filed as biochemical. The note with it: pH 7.4, two hours at 37° C. How it is done: Compounds of Formula I were evaluated as inhibitors of human renin in an in vitro assay, as follows: This human renin inhibition test has been previously described in detail [Papaioannou et al., Clinical and Experimental Hypertension, A7(9), 1243-1257 (1985)]. Human renin was obtained from the National Institute for Biological Standards, London. An incubation mixture was prepared containing the following components: in a total volume of 0.25 mL: 100 mM Tris-acetate buffer at pH 7.4, 25×10-6 Goldblatt units of renin, 0.05 mL of plasma from human volunteers taking oral contraceptives, 6.0 mM Na-EDTA, 2.4 mM phenylmethyl sulfonyl fluoride, 1.5 mM 8-hydroxyquinoline, 0.4 mg/mL bovine serum albumin (BSA), and 0.024 mg/mL neomycin sulfate. This mixture was incubated for two hours at 37° C. in the presence or absence of renin inhibitors. The produced angiotensin I was determined by radioimmunoassay (New England Nuclear kit). Test compounds to be assayed were dissolved in DMSO and diluted with 100 mM Tris-acetate buffer at pH 7.4 containing 0.5% BSA to the appropriate concentration. The final concentration of organic solvent in the reaction mixture was less than 1%. Control incubations at 37° C. were used to correct for effects of organic solvent on renin activity.

A further experiment concerns pepsin. The note with it: Umezawa et al, J. Antibiot. 1970; cited from earlier work.
The subject of a further experiment is cathepsin D. The note with it: Umezawa et al, J. Antibiot. 1970; cited from earlier work.
A further experiment has as its system renin. The note with it: Umezawa et al, J. Antibiot. 1970; cited from earlier work.
In another experiment the test system is blood pressure. The note with it: after the injection of hog renin into nephrectomized rats; Gross et al, Science 1971; cited from earlier work.

`C#CC[C@H](O)[C@H](O)[C@H](CC1CCCCC1)NC(=O)[C@H](Cc1cscn1)NC(=O)[C@@H](CC(=O)N(C)CCN(C)C)Cc1ccccc1` [Example 1, N^1-[2-[[1S,1R*-(cyclohexylmethyl-2S*,3R*-dihydroxy-5-hexynyl]amino]-2-oxo-1R*-(4-thiazolylmethyl)ethyl]-N^4-[2-(dimethylamino)ethyl]-N^4-methyl-2S*-(phenylmethyl)butanediamide] registered an IC50 against human renin of 28 nM.

As for `CC(C)CC(=O)N[C@H](C(=O)N[C@H](C(=O)N[C@@H](CC(C)C)[C@@H](O)CC(=O)N[C@@H](C)C(=O)N[C@@H](CC(C)C)[C@@H](O)CC(=O)O)C(C)C)C(C)C` [pepstatin] (Isovaleryl-VV[Sta]A[Sta]-OH), the “inhibitor of aspartyl proteases: pepsin” value in the experiment on pepsin is reported as “inhibitor of aspartyl proteases such as pepsin”. Besides, the “inhibitor of aspartyl proteases: cathepsin D” value in the experiment with cathepsin D is given as “inhibitor of aspartyl proteases such as pepsin, cathepsin D”. The “inhibitor of aspartyl proteases: renin” value in the experiment with renin was “inhibitor of aspartyl proteases such as pepsin, cathepsin D and renin”. The “reduce blood pressure in vivo” value with blood pressure is “found to reduce blood pressure in vivo”.
